Laboratory results: ChEMBL document CHEMBL1201862, “PubChem BioAssay data set” (2004)
Activity calls are given as the source filed them.

Tests used:
[1] = HEK-293T viability loss after treatment – luminescence, T-cell screen hits, cytotoxicity control for TCR NF-kB inhibitor project, dose response (AID 489026); format: functional, cell-based;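 note: cells exposed to compound about 14 hours before the viability readout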
[2] = blockers of HIV-1 ZM109 envelope-driven cell-cell fusion – HeLa effector, CEM target cells, luciferase, cherry-pick, dose response (AID 652058); format: functional, cell-based;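 note: luciferase signal from HIV-1 Env mediated cell-cell fusion of effector and target cells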
Nonstructural protein 1 = Nonstructural protein 1 (Influenza A virus, UniProt Q194T2); format: functional, Influenza A virus (A/California/07/2009(H1N1))
Chain of Nonstructural protein 1 (Q194T2 whole entry, the tested form may be a part): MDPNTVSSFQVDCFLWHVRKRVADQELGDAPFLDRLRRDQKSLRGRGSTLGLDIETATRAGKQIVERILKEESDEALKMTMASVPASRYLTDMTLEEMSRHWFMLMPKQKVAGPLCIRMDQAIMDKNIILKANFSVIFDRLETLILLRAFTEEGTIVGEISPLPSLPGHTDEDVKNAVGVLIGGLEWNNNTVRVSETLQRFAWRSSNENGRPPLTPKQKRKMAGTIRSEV

[3] = viability loss in CEM21 cells – cell-based, CellTiter-Glo luminescence, cherry-picked, cytotoxicity control for viral fusion inhibitor project, dose response (AID 652042); format: functional;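 note: potency for signal decrease meaning cytotoxicity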
[4] = off-target signal loss in HeLa-CEM21 co-culture – HeLa F-luc CTL cells, cherry-picked, counter-screen for HIV-1 Env fusion inhibitor project, dose response (AID 652040); format: functional, cell-based;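 note: potency for signal decrease marking cytotoxic or nonspecific inhibition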
[5] = blockers of HIV-1 envelope-mediated cell-cell fusion – cherry-pick, dose response (AID 652057); format: functional, cell-based
[6] = target: NACHT, LRR and PYD domains-containing protein 3 (Homo sapiens, UniProt Q96P20); test: NALP3 inhibitors in yeast, dose response, luminescent (AID 488799); format: functional
Chain of NACHT, LRR and PYD domains-containing protein 3 (Q96P20 whole entry, the tested form may be a part): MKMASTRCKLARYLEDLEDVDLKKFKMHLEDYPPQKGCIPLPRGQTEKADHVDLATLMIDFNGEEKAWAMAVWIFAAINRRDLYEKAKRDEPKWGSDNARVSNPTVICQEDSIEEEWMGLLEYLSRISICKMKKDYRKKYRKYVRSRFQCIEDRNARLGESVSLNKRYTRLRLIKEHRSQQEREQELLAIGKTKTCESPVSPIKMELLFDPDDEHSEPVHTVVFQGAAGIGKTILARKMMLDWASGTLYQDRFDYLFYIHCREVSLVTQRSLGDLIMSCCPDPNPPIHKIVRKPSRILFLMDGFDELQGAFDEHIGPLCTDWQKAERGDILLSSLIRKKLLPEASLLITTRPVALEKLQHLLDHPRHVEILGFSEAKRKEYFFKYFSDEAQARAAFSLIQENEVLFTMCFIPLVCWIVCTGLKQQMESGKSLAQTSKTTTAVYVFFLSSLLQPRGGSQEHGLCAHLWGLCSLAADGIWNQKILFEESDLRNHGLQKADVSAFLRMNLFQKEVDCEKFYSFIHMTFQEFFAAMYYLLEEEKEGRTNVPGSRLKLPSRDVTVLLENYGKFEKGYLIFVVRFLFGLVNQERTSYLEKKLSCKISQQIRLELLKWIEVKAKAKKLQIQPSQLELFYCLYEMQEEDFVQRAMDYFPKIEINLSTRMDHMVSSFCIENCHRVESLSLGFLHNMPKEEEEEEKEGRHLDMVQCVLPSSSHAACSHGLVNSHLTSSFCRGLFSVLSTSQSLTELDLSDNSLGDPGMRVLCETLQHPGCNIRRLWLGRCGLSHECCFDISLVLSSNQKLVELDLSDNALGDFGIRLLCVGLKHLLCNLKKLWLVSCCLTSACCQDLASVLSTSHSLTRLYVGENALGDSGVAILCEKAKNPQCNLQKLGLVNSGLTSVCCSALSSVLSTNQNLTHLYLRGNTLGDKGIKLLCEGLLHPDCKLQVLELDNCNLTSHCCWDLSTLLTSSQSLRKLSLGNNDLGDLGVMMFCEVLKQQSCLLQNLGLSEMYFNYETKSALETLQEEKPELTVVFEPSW

[7] = HIV-1 AD8 envelope cell-cell fusion blockers – cherry-pick, dose response (AID 652062); format: functional, cell-based;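 note: luciferase signal from cell-cell fusion driven by HIV-1 clade B AD8 Env; potency is for inhibitors of fusion seen as a drop in luminescence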
Caspase-3 = target: T1, Caspase-3 (Homo sapiens, UniProt P42574); format: functional;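 note: Dose-response selectivity test against caspase-3 for candidate inhibitors of sentrin-specific proteases (SENPs)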
T1 sequence (P42574 whole entry): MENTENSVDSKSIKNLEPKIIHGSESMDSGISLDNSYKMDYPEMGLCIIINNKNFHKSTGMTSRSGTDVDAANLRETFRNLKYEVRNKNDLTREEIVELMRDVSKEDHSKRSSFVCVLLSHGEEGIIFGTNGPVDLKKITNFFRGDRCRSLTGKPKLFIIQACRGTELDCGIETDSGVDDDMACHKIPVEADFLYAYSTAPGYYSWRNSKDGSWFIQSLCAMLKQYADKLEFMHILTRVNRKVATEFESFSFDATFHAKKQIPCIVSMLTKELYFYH

[8] = target: T2, Sentrin-specific protease 6 (Homo sapiens, UniProt Q9GZR1); format: functional;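 note: Luminescence-based dose-response confirmatory assay of SENP6 inhibition, following up an ultra-high-throughput screen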
T2 sequence (Q9GZR1 whole entry): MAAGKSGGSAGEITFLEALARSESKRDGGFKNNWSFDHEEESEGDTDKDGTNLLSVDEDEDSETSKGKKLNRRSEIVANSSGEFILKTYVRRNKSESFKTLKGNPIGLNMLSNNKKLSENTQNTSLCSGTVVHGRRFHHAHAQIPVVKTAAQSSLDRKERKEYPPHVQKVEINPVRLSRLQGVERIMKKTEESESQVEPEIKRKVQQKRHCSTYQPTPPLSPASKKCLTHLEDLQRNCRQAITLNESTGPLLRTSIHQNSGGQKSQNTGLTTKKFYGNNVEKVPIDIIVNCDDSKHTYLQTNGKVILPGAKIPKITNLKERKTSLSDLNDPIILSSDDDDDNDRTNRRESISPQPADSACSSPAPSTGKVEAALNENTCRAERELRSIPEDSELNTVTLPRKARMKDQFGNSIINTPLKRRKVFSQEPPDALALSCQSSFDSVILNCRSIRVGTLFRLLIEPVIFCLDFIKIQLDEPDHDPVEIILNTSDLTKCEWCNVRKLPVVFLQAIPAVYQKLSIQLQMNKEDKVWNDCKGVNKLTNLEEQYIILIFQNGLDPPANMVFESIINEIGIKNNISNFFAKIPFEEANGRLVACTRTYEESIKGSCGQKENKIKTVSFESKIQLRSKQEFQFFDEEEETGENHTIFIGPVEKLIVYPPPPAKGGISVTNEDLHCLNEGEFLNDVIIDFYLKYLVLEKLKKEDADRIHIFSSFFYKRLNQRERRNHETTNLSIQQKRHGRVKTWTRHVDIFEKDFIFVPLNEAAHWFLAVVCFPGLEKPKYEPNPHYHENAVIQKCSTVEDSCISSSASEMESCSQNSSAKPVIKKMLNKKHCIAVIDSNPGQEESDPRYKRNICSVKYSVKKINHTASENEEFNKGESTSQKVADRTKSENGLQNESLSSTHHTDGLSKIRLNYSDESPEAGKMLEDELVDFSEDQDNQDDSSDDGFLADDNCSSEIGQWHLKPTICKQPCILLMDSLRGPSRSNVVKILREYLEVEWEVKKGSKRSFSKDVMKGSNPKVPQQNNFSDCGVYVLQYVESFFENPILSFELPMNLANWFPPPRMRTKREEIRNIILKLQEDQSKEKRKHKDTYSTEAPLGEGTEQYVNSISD

H4 = test: Luminescence Cell-Based Dose Response HTS to Identify Activators of 5'UTR Stem-Loop Driven Prion Protein mRNA Translation in H4 Neuroglioblastoma Cells. [Related pubchem assays: 1829 (Project Summary), 1814 (Primary HTS)]; format: functional; conditions: Homo sapiens
[9] = target: T3, Sentrin-specific protease 8 (Homo sapiens, UniProt Q96LD8); format: functional;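 note: luminescence read-out of SENP8 inhibition, dose-response confirmation following an ultra-high-throughput screen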
T3 sequence (Q96LD8 whole entry): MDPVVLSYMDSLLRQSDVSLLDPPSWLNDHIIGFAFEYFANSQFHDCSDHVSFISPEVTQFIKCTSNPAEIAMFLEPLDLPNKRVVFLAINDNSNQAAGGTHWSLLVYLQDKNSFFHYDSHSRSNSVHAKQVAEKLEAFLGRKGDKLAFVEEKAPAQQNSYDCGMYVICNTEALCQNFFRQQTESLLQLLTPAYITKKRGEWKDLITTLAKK

[10] = target: T4, Sentrin-specific protease 7 (Homo sapiens, UniProt Q9BQF6); format: functional;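 note: Luminescence-based dose-response confirmation of ultra-high-throughput screening hits, measuring inhibition of SENP7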
T4 sequence (Q9BQF6 whole entry): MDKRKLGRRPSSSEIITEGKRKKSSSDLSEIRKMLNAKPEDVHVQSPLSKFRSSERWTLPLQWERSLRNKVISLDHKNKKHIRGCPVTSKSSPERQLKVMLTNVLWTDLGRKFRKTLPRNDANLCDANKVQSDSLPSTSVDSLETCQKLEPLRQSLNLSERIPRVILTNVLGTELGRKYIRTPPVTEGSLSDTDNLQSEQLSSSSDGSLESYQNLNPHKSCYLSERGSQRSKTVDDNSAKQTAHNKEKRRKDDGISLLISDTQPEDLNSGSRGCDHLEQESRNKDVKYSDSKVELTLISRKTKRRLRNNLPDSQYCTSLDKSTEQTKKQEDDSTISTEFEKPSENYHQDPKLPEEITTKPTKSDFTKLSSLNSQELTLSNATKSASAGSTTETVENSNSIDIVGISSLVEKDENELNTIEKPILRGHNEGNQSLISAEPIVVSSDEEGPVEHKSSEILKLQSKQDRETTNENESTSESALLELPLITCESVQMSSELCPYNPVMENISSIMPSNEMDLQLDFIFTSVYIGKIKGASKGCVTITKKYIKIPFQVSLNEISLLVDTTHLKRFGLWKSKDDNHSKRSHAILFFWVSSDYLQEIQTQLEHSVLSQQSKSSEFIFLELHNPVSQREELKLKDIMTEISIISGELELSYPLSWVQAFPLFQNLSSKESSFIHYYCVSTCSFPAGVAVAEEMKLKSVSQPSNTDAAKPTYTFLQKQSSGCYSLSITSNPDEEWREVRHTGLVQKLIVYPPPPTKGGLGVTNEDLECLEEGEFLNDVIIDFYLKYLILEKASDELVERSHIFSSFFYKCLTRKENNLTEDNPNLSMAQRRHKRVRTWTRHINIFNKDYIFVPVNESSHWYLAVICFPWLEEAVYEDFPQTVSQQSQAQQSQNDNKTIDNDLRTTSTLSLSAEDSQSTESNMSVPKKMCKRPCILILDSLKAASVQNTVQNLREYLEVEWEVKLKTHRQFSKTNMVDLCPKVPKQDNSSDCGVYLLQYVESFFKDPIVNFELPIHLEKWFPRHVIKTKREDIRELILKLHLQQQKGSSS

[11] = Luminescence Cell-Based Dose Response HTS to Identify Activators of Luciferase Translation or Activity in H4 […] Cells. [Related pubchem assays: 1829 (Project Summary), 1814 (Primary HTS)]; format: functional
[12] = target: DNA dC->dU-editing enzyme APOBEC-3A (Homo sapiens, UniProt P31941); test: A3A deaminase inhibition for selectivity – biochemical, dose response (AID 504722); format: functional
[13] = target: DNA dC->dU-editing enzyme APOBEC-3G (Homo sapiens, UniProt Q9HC16); test: Dose Response confirmation of small molecule APOBEC3G DNA Deaminase Inhibitors via a fluorescence-based single-stranded DNA deaminase assay. [Related pubchem assays (depositor defined):AID493012, AID493028]; format: functional
[14] = target: Female germline-specific tumor suppressor gld-1 (Caenorhabditis elegans, UniProt Q17339); test: blockers of GLD-1/TGE RNA complex formation – biochemical, fluorescence polarization, C. elegans, dose response (AID 2802);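 note: fluorescence polarization of labeled TGE RNA bound by purified gld-1 protein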
[15] = target: T5, Zinc finger protein mex-5 (Caenorhabditis elegans, UniProt Q9XUB2); test: potency of MEX-5 RNA-binding blockers – biochemical, C. elegans, fluorescence polarization, dose response (AID 1960)
T5 sequence (Q9XUB2 whole entry): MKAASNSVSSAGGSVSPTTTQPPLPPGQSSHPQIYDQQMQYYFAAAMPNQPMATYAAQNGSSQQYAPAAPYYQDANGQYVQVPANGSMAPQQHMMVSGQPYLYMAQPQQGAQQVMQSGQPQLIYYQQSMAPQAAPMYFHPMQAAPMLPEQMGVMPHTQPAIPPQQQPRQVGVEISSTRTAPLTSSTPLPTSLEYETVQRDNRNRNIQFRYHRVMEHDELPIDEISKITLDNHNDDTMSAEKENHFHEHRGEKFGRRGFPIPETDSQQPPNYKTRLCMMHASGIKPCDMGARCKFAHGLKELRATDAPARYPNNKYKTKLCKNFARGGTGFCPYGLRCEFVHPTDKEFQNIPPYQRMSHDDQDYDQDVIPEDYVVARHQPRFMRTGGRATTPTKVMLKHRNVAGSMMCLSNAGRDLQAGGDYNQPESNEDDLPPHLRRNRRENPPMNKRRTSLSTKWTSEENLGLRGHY

[16] = target: Induced myeloid leukemia cell differentiation protein Mcl-1 (Homo sapiens, UniProt Q07820); format: functional
Chain of Induced myeloid leukemia cell differentiation protein Mcl-1 (Q07820 whole entry, the tested form may be a part): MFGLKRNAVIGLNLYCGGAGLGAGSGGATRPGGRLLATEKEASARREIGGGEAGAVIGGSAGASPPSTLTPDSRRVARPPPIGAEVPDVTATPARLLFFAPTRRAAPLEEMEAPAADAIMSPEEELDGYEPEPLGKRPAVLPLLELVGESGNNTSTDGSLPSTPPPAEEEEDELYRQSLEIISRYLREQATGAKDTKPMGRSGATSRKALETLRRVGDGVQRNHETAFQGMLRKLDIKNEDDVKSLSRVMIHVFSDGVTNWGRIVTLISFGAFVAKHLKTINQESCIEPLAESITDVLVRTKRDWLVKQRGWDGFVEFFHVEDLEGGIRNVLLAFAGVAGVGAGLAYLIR

[17] = target: T6, RNA-binding protein pos-1 (Caenorhabditis elegans, UniProt G5EF15); test: disruptors of C. elegans POS-1 RNA interaction – biochemical, fluorescence polarization, dose response (AID 1964);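 note: purified POS-1 fused to maltose binding protein made in E. coli; potency of compounds blocking POS-1 binding to fluorescent RNA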
T6 sequence (G5EF15 whole entry): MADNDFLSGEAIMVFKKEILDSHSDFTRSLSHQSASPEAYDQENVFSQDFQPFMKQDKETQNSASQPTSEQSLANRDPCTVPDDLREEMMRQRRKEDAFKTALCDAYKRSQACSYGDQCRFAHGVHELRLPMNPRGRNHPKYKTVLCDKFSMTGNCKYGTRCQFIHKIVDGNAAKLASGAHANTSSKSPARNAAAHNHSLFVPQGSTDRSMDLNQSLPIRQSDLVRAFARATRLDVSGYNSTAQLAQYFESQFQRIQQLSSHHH

Protein Rev = Protein Rev (Human immunodeficiency virus type 1 group M subtype B (isolate HXB2)(HIV-1), UniProt P04618); test: blockers of HIV Rev/RRE RNA complex – biochemical, fluorescence polarization, HIV-1, dose response (AID 434976); set-up: species or system Human immunodeficiency virus 1
Chain of Protein Rev (P04618 whole entry): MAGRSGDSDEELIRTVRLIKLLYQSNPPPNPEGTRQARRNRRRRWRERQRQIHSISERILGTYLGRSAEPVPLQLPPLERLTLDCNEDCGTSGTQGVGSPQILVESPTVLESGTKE

Genome polyprotein = Genome polyprotein (dengue virus type 2, UniProt P29990); test: flavivirus cap methylation enzyme inhibition – biochemical, confirmation dose response, primary screen (AID 588689); format: functional
[18] = target: T7, Voltage-gated N-type calcium channel alpha-1B subunit/Amyloid beta A4 precursor protein-binding family A member 1 (Homo sapiens, UniProt Q00975+Q02410); format: protein assay
T7 sequence (Q00975 whole entry, the tested form may be a part): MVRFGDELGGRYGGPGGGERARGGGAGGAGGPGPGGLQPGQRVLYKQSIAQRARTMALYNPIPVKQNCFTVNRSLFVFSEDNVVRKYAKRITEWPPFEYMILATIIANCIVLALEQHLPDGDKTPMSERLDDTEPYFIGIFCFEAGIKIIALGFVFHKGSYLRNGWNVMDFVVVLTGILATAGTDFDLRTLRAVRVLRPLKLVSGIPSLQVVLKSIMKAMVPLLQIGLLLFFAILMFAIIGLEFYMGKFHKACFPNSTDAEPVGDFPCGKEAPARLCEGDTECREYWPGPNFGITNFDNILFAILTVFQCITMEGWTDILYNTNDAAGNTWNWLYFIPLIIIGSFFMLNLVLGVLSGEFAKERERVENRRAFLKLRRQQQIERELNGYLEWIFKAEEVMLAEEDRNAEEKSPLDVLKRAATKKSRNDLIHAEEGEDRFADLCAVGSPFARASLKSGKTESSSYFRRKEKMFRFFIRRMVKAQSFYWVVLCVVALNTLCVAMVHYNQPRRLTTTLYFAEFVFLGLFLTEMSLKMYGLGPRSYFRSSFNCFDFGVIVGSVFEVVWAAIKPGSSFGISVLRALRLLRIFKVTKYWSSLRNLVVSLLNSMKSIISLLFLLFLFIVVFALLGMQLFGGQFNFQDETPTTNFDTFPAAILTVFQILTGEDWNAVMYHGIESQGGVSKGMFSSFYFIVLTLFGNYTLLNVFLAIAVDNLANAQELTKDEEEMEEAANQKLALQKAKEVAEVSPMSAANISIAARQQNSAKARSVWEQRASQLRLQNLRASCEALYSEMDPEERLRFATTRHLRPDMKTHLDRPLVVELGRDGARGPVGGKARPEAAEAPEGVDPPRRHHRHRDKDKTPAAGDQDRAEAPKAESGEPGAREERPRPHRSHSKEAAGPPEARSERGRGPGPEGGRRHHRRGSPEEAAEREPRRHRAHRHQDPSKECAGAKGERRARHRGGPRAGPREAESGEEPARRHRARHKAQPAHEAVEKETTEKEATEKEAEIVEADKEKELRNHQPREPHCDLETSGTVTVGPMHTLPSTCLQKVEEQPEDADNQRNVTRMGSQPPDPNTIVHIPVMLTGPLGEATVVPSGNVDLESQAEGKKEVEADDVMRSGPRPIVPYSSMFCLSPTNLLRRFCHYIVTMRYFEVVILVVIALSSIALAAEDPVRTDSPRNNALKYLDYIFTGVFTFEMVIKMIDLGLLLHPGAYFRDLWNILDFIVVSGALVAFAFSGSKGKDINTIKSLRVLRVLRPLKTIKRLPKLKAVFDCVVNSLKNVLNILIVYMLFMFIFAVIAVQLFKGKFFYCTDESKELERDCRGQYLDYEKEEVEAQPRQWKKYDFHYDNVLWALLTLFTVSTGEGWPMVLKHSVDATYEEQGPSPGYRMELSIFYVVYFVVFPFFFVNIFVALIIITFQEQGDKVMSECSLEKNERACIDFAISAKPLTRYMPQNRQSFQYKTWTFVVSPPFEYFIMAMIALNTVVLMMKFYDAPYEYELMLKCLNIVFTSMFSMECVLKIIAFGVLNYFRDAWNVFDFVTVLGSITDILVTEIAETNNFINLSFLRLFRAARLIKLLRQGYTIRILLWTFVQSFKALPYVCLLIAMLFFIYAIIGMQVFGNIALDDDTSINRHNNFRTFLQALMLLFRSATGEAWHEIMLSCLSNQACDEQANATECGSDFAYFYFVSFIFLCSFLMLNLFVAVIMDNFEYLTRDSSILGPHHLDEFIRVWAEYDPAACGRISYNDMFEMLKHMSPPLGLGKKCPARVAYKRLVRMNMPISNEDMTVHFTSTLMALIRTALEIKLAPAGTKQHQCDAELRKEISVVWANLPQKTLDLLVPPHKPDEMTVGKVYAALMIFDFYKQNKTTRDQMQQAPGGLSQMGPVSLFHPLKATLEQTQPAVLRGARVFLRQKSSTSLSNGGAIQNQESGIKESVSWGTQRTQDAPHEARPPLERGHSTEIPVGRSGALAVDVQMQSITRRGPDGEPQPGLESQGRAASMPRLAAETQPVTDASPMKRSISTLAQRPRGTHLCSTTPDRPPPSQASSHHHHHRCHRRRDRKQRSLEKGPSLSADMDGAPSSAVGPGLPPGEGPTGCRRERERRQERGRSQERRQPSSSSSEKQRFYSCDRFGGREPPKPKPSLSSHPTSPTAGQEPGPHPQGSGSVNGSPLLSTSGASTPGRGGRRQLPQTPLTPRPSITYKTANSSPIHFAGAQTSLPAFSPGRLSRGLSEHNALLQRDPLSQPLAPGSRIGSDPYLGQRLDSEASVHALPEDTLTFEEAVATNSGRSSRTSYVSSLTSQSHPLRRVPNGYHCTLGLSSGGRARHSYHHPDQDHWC
T7 sequence (Q02410 whole entry, the tested form may be a part): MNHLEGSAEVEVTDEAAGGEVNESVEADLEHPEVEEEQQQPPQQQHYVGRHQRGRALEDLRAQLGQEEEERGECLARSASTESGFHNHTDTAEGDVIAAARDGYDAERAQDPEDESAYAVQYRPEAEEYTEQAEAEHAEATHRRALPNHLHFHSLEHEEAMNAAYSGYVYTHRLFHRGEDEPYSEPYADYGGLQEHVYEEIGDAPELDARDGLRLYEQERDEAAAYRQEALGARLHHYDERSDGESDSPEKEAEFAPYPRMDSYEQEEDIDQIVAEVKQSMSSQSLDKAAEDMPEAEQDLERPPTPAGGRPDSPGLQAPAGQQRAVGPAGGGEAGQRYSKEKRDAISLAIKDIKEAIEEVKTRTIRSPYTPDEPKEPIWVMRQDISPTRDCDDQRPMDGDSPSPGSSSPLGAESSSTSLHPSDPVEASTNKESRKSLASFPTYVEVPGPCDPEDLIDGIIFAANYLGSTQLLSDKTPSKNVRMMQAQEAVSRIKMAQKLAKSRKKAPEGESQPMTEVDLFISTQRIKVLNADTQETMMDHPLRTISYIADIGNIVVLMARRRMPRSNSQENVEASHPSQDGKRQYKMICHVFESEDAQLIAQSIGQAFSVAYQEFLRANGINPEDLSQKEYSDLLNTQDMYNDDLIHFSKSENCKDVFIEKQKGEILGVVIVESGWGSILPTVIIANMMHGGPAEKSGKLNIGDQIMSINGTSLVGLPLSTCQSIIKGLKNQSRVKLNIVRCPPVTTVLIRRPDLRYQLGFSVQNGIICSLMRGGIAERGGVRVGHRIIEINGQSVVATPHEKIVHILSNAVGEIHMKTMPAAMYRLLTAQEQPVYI

[19] = target: T8, Carboxy-terminal domain RNA polymerase II polypeptide A small phosphatase 1 (Homo sapiens, UniProt Q9GZU7); test: CTDSP1 inhibitors, concentration-response, biochemical, absorbance readout, ultra-high-throughput screen actives (AID 540297); format: functional
T8 sequence (Q9GZU7 whole entry): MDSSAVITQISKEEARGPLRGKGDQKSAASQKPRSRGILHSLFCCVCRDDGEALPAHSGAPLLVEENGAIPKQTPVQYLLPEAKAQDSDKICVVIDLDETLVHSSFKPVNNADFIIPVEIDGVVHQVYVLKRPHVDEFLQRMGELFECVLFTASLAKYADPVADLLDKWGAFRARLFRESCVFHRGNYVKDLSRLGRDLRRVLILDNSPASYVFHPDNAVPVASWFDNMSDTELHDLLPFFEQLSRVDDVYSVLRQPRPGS

[20] = target: T7, Voltage-gated N-type calcium channel alpha-1B subunit/Amyloid beta A4 precursor protein-binding family A member 1; format: protein assay; remark: listed apart in the source
Large T antigen = Large T antigen (Simian virus 40, UniProt P03070); format: functional, Betapolyomavirus macacae;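 note: Confirmatory-stage PubChem screen for compounds that inhibit SV40 T antigen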
[21] = target: T7, Voltage-gated N-type calcium channel alpha-1B subunit/Amyloid beta A4 precursor protein-binding family A member 1; test: disruptors of Mint-PDZ/N-type channel peptide interaction – biochemical, HTRF, SAR follow-up (AID 2489); format: functional

SMILES: CCN(CC)c1ccc2nc3ccc(N)cc3[n+](-c3ccccc3)c2c1
- IC50 [1]: 67.7 µM (inactive)
- AC50 [2]: 1.28 µM (active)
- IC50 (Nonstructural protein 1): 8.47 µM (active)
- AC50 [3]: 3.25 µM (active)
- AC50 [4]: 1.41 µM (active)
- AC50 [5]: 3.78 µM (active)
- IC50 [6]: 4.79 µM (active)
- AC50 [7]: 3.84 µM (active)

SMILES: CCCC1CCC(c2ccc(OCC)cc2)=CC1=O (stereo unspecified)
- IC50 (Caspase-3): 21.3 µM (active)
- IC50 [8]: 29.6 µM (active)
- EC50 (H4): 20.7 µM (inconclusive)
- IC50 [9]: 40.2 µM (active)
- IC50 [6]: 53.9 µM (active)
- IC50 [10]: 10.1 µM (active)
- EC50 [11]: 126 nM (active)

SMILES: Cc1ccccc1/C=N/n1c(S)nnc1-c1ccccn1
- IC50 [12]: > 100 µM (inactive)
- IC50 [13]: 4.13 µM (active)

SMILES: Nc1c(O)ccc2c1C(=O)c1ccccc1C2=O
- IC50 [14]: 4.15 µM (active)
- EC50 [15]: 10.4 µM (active)
- IC50 [16]: 3.66 µM (not active)
- EC50 [17]: > 300 µM (not active)
- IC50 (Protein Rev): > 75.4 µM (not active)

SMILES: O=C(O)CCn1cc(C=C2C(=O)NC(=S)NC2=O)c(-c2cccc(Cl)c2)n1
- IC50 (Genome polyprotein): 10.9 µM (active)
- IC50 [18]: 30.7 µM (active)
- IC50 [19]: 10.1 µM (active)
- IC50 [16]: 2.87 µM (active)
- IC50 [20]: 13 µM (active)
- IC50 (Large T antigen): 76.3 µM (active)

SMILES: CC(=O)NS(=O)(=O)c1ccc(NC(=O)/C=C/c2ccc(C)o2)cc1
- IC50 [18]: 6.9 µM (active)
- IC50 [21]: > 56.8 µM (inactive)
- IC50 [20]: 2.19 µM (active)
